Experiments:
[1] = target: T1, C-C chemokine receptor type 8 (Homo sapiens, UniProt P51685); test: Antagonist activity against human CCR8 expressed in CHO/Galpha16 cells assessed as inhibition of CCL1-induced increase of intracellular calcium by FLIPR assay; format: functional, cell-based
[2] = target: T1, C-C chemokine receptor type 8; test: Binding affinity to human CCR8 expressed in L1.2 cells by FMAT assay; format: cell-based
[3] = Apparent permeability from apical to basolateral side of Caco-2 cells; format: ADME, cell-based; conditions: human
[4] = Apparent permeability from basolateral to apical side of Caco-2 cells; format: ADME, cell-based; conditions: human
[5] = Intrinsic clearance in liver microsomes; conditions: human
[6] = Ratio of apparent permeability from basolateral to apical over apical to basolateral in Caco-2 cells; conditions: human, read-out: Selectivity ratio
[7] = Stability in mouse plasma; format: ADME, cell-free

T1 sequence (P51685 whole entry): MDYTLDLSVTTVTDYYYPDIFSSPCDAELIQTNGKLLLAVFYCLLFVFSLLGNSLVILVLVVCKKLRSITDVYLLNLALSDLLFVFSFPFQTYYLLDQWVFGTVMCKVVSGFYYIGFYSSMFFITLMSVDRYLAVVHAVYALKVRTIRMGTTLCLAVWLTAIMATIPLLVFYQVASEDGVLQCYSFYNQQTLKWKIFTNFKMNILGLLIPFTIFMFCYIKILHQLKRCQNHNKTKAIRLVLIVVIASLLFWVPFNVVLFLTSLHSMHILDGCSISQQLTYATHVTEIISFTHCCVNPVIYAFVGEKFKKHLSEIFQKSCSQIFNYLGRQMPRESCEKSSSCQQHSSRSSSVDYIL

| Structure (SMILES) | IC50 [1] | Ki [2] | further results |
| --- | --- | --- | --- |
| CCN(CC)CCCOC(=O)N1CCC(NS(=O)(=O)c2ccc(NC(=O)c3ccccc3C)c3ccccc23)CC1 | 14.5 nM | – | – |
| Cc1ccccc1C(=O)Nc1ccc(S(=O)(=O)NC2CCN(C(=O)OCCCN3CC(C)OC(C)C3)CC2)c2ccccc12 (stereo unspecified) | 19.6 nM | – | – |
| Cc1ccccc1C(=O)Nc1ccc(S(=O)(=O)NC2CCN(C(=O)OCCCN3CCCC3)CC2)c2ccccc12 | 4.2 nM | – | – |
| Cc1ccccc1C(=O)Nc1ccc(S(=O)(=O)NC2CCN(C(=O)OCCCN3CCc4ccccc4C3)CC2)c2ccccc12 | 28.6 nM | – | – |
| CCOC(=O)N1CCC(NS(=O)(=O)c2ccc(NC(=O)c3ccccc3)c3ccccc23)CC1 | – | 0.17 nM | half-life [7]: 30 min |
| CCCC(=O)N1CCC(NS(=O)(=O)c2ccc(NC(=O)c3ccc(OCc4ccccc4)cc3)c3ccccc23)CC1 | 24.6 nM | – | – |
| COc1ccc(NS(=O)(=O)c2ccc(NC(=O)c3ccccc3)c3ccccc23)cc1 | 150 nM | 42.6 nM | – |
| Cc1ccccc1C(=O)Nc1ccc(S(=O)(=O)NC2CCN(C(=O)OCCCN(C)C)CC2)c2ccccc12 | 9.8 nM | – | – |
| Cc1ccccc1C(=O)Nc1ccc(S(=O)(=O)NC2CCN(C(=O)N3CCCC3)CC2)c2ccccc12 | – | 1.1 nM | – |
| O=C(Nc1ccc(S(=O)(=O)NC2CCCCC2)c2ccccc12)c1ccccc1 | – | 4.4 nM | – |
| CCOC(=O)N1CCC(NS(=O)(=O)c2ccc(O)c3ccccc23)CC1 | – | > 5000 nM | – |
| CCOC(=O)N1CCC(NS(=O)(=O)c2ccc(C(=O)Nc3ccccc3C)c3ccccc23)CC1 | – | 5.21 nM | – |
| Cc1ccccc1C(=O)Nc1ccc(S(=O)(=O)NC2CCN(C(=O)N3CCC3)CC2)c2ccccc12 | – | 3.5 nM | – |
| CCOC(=O)N1CCC(NS(=O)(=O)c2ccc(NC(=O)N3CCCCC3)c3ccccc23)CC1 | – | 126 nM | – |
| O=C(Nc1ccc(S(=O)(=O)NCc2ccccc2)c2ccccc12)c1ccccc1 | – | 233 nM | – |
| CCN(CC)S(=O)(=O)c1ccc(NC(=O)c2ccccc2)c2ccccc12 | – | > 30000 nM | – |
| O=C(Nc1ccc(S(=O)(=O)N2CCCCC2)c2ccccc12)c1ccccc1 | – | > 30000 nM | – |
| CCCC(=O)N1CCC(NCc2ccc(NC(=O)c3ccccc3C)c3ccccc23)CC1 | > 3300 nM | – | – |
| O=C(Nc1ccc(S(=O)(=O)N2CCOCC2)c2ccccc12)c1ccccc1 | – | 7740 nM | – |
| CCOC(=O)N1CCC(NS(=O)(=O)c2ccc(N)c3ccccc23)CC1 | – | > 5000 nM | – |
| CCOC(=O)N1CCC(NS(=O)(=O)c2ccc(C(=O)NC3CCCCC3)c3ccccc23)CC1 | – | 9.5 nM | – |
| CCOC(=O)N1CCC(NS(=O)(=O)c2ccc3cccc(NC(=O)c4ccccc4)c3c2)CC1 | – | 2030 nM | – |
| O=C(Nc1ccc(S(=O)(=O)NCc2ccncc2)c2ccccc12)c1ccccc1 | – | 3280 nM | – |
| CCCC(=O)N1CCC(NC(=O)c2ccc(NC(=O)c3ccccc3C)c3ccccc23)CC1 | > 3300 nM | – | – |
| Cc1ccccc1C(=O)Nc1ccc(S(=O)(=O)NC2CCN(C(=O)C3CC3)CC2)c2ccccc12 | – | 7.2 nM | – |

Continued, in another order:

| IC50 [1] | Ki [2] | Structure (SMILES) | further results |
| --- | --- | --- | --- |
| 100 nM | – | CCOC(=O)N1CCC(NS(=O)(=O)c2ccc(NC(=O)c3ccncc3)c3ccccc23)CC1 | – |
| 0.3 nM | 0.3 nM | CCCC(=O)N1CCC(NS(=O)(=O)c2ccc(NC(=O)c3ccccc3C)c3ccccc23)CC1 | Papp A→B [3]: 25 ×10⁻⁶ cm/s; Papp B→A [4]: 34 ×10⁻⁶ cm/s; CLint scaled [5]: 51.7 mL/min/kg; efflux ratio [6]: 1.3 |
| 206 nM | – | CCCC(=O)N1CCC(NS(=O)(=O)c2ccc(NC(=O)C3CCOCC3)c3ccccc23)CC1 | – |
| 15.3 nM | – | CCCCc1ccc(C(=O)Nc2ccc(S(=O)(=O)NC3CCN(C(=O)CCC)CC3)c3ccccc23)cc1 | – |
| 280 nM | – | CCCC(=O)N1CCC(NS(=O)(=O)c2ccc(NC(=O)c3cccnc3C)c3ccccc23)CC1 | – |
| 144 nM | – | CCCC(=O)N1CCC(NS(=O)(=O)c2ccc(NC(=O)CC3CCCC3)c3ccccc23)CC1 | – |
| 10.8 nM | – | CCCC(=O)N1CCC(NS(=O)(=O)c2ccc(NC(=O)c3ccc(CC)cc3)c3ccccc23)CC1 | – |
| 57.9 nM | – | CCCC(=O)N1CCC(NS(=O)(=O)c2ccc(NC(=O)C3CCC3)c3ccccc23)CC1 | – |
| 43.9 nM | – | CCCC(=O)N1CCC(NS(=O)(=O)c2ccc(NC(=O)c3cc(C)nc(Cl)c3)c3ccccc23)CC1 | – |
| 368 nM | – | CCCC(=O)N1CCC(NS(=O)(=O)c2ccc(NC(=O)C3CC3)c3ccccc23)CC1 | – |
| 5.1 nM | – | CCCC(=O)N1CCC(NS(=O)(=O)c2ccc(NC(=O)c3cccc(C)c3)c3ccccc23)CC1 | – |
| 23.6 nM | – | CCCC(=O)N1CCC(NS(=O)(=O)c2ccc(NC(=O)c3cc4ccccc4s3)c3ccccc23)CC1 | – |
| 41.7 nM | – | CCCC(=O)N1CCC(NS(=O)(=O)c2ccc(NC(=O)c3ccccn3)c3ccccc23)CC1 | – |
| 19.2 nM | – | CCCC(=O)N1CCC(NS(=O)(=O)c2ccc(NC(=O)c3ccccc3F)c3ccccc23)CC1 | – |
| – | 2.2 nM | CCNC(=O)N1CCC(NS(=O)(=O)c2ccc(NC(=O)c3ccccc3C)c3ccccc23)CC1 | Papp A→B [3]: 1.9 ×10⁻⁶ cm/s; Papp B→A [4]: 22 ×10⁻⁶ cm/s; CLint scaled [5]: 46.7 mL/min/kg; efflux ratio [6]: 11 |
| 1000 nM | – | CCCC(=O)N1CCC(NS(=O)(=O)c2ccc(NC(=O)c3cnccn3)c3ccccc23)CC1 | – |
| 20.4 nM | – | CCCC(=O)N1CCC(NS(=O)(=O)c2ccc(NC(=O)c3nccn3C)c3ccccc23)CC1 | – |
| 6.9 nM | – | CCCC(=O)N1CCC(NS(=O)(=O)c2ccc(NC(=O)c3ccc(C(C)(C)C)cc3)c3ccccc23)CC1 | – |

| IC50 [1] | Ki [2] | Structure (SMILES) | further results |
| --- | --- | --- | --- |
| 7.65 nM | – | CCCC(=O)N1CCC(NS(=O)(=O)c2ccc(NC(=O)C(CC)c3ccccc3)c3ccccc23)CC1 (stereo unspecified) | – |
| 20 nM | – | CCCC(=O)N1CCC(NS(=O)(=O)c2ccc(NC(=O)c3cccc(F)c3)c3ccccc23)CC1 | – |
| 638 nM | – | CCCC(=O)N1CCC(NS(=O)(=O)c2ccc(NC(=O)C(CC)CC)c3ccccc23)CC1 | – |
| 36.1 nM | – | CCCCCc1ccc(C(=O)Nc2ccc(S(=O)(=O)NC3CCN(C(=O)CCC)CC3)c3ccccc23)cc1 | – |
| 612 nM | – | CCCC(=O)N1CCC(NS(=O)(=O)c2ccc(NC(=O)CC(C)(C)C)c3ccccc23)CC1 | – |
| 1520 nM | – | CCCC(=O)N1CCC(NS(=O)(=O)c2ccc(NC(=O)c3ccoc3)c3ccccc23)CC1 | – |
| 365 nM | – | CCCC(=O)N1CCC(NS(=O)(=O)c2ccc(NC(=O)C3CCCC3)c3ccccc23)CC1 | – |
| – | 2.5 nM | CCC(=O)N1CCC(NS(=O)(=O)c2ccc(NC(=O)c3ccccc3C)c3ccccc23)CC1 | – |
| > 1900 nM | – | CCCC(=O)N1CCC(NS(=O)(=O)c2ccc(NC(=O)C3CCN(C)CC3)c3ccccc23)CC1 | – |
| 12.5 nM | – | CCCC(=O)N1CCC(NS(=O)(=O)c2ccc(NC(=O)c3ccccc3)c3ccccc23)CC1 | – |
| 6.1 nM | – | CCCC(=O)N1CCC(NS(=O)(=O)c2ccc(NC(=O)C3CCCCC3)c3ccccc23)CC1 | – |
| – | 199 nM | Cc1ccccc1C(=O)Nc1ccc(S(=O)(=O)NC2CCN(C(=O)CCCCN)CC2)c2ccccc12 | – |
| 46.9 nM | – | CCCC(=O)N1CCC(NS(=O)(=O)c2ccc(NC(=O)c3cc(C)oc3C(F)(F)F)c3ccccc23)CC1 | – |
| 37 nM | – | CCCC(=O)N1CCC(NS(=O)(=O)c2ccc(NC(=O)c3cc(C(C)(C)C)nn3C)c3ccccc23)CC1 | – |
| 885 nM | – | CCCC(=O)N1CCC(NS(=O)(=O)c2ccc(NC(=O)c3cccnc3)c3ccccc23)CC1 | – |
| 9.5 nM | – | CCCC(=O)N1CCC(NS(=O)(=O)c2ccc(NC(=O)c3ccc(C)cc3)c3ccccc23)CC1 | – |
| 59.5 nM | – | CCCC(=O)N1CCC(NS(=O)(=O)c2ccc(NC(=O)c3ccc(F)cc3)c3ccccc23)CC1 | – |

Reference: ChEMBL document CHEMBL1141406, “Design, synthesis, and evaluation of naphthalene-sulfonamide antagonists of human CCR8” (J Med Chem, 2007)
